In the case of `CN1C(=O)SC(Cc2ccc(NC(=O)/C=C/c3cnn(C)c3-c3ccc(F)cc3)cc2)C1=O` (stereo not drawn), the melting point (usually the temperature of the solid-liquid transition) lay within 228 to 229 °C.

For `CS(=O)(=O)N(Cc1cccnc1)c1ccc(Cl)cc1Cl`, the melting point fell in the range of 180 to 186 °C.

Turning to `CCCCCCCCCCCCc1nnn(C(CCC)C(=O)Nc2c(OC)cc(OC)cc2OC)n1` (stereo not drawn), the melting point lay within 146 to 148 °C.

Regarding `COc1ccc2c(c1)C(CC(=O)O)=C(C)C2=Cc1ccc(SC)cc1`, the melting point is 195 to 196 °C.

As for `O=[N+]([O-])c1cc(S(=O)c2ccccc2)ccc1Cl` (stereo not drawn), the melting point fell in the range of 86 to 87 °C.

For `Nc1nc2ccccc2n1-c1cccc(-n2c(N)nc3ccccc32)c1`, the melting point came to 270 °C.

The molecule `CCCOc1ccc(CO)cc1-c1nc2c(CCC)nn(C)c2c(=O)[nH]1` came in with a melting point of 174 to 175 °C.

As to `CCCCSCC(=O)c1ccc2c(c1)n(C)c(=O)n2C`, the melting point is 80 to 81 °C.

Consider `Nc1scc(CN2CCN(c3ccccc3)CC2)c1C(=O)c1ccc(Cl)cc1`, for which the melting point amounted to 112 °C.

Regarding `CCOC(=O)c1cc(-c2ccccc2)nc2c([N+](=O)[O-])cccc12`, the melting point is 138 to 140 °C.

In turn, `CS(=O)CC(C)(C)NC(=O)c1c(I)cccc1-c1ccc(C(F)(F)F)cc1` (stereo not drawn) returned a melting point of 155 to 158 °C.

With `CCOC(=O)C(CC)=C(C)NC(=O)Nc1cc(C(=O)OC(C)C)c(Cl)cc1F`, the melting point is 112 to 115 °C.

Consider `CS(=O)(=O)Nc1cc(N)c(F)cc1C#N`, for which the melting point came to 235 °C.

Molecule `O=P(O)(O)C(F)P(=O)(O)O` gave a melting point of 162 to 163 °C.

Molecule `Nc1ccn([C@@H]2O[C@H](CO)[C@@H](O)/C2=C\F)c(=O)n1` registered a melting point of 166 °C.

In turn, `COC(=O)C1(CCCN2CCN(c3ccc(O)cc3)CC2)Sc2cc(OC)ccc2CCC1O` (stereo not drawn) came in with a melting point of 120 to 124 °C.

Turning to `O=C(O)Cn1cc(C(=O)O)c(=O)c2cccc(Br)c(=O)c21`, the melting point is 173 to 175 °C.

Consider `O=c1c(-c2ccccc2)c[nH]n1-c1ncccn1`, for which the melting point fell in the range of 159 to 160 °C.

Molecule `COC(=O)C(Cc1ccccc1)C(=O)N1CCC(C(=O)O)CC1` (stereo not drawn) gave a melting point of 138 °C.

Molecule `O=S(=O)(Nc1ccc2c(OCc3ccc(I)cc3)cccc2c1)C(F)(F)F` gave a melting point of 120 to 122 °C.

`CSC(=NCCSCc1ncccc1Cl)NC#N` came in with a melting point of 120 to 121 °C.

The molecule `O=C(C1CO1)C(Cl)(Cl)Cl` (stereo not drawn) gave a melting point of 92 to 95 °C.

Molecule `Cc1cc(-c2cc(C(=O)O)c(=O)n(CC=Cc3ccccc3)n2)ccc1F` came in with a melting point of 143 to 144 °C.

For the molecule `C=CCN1CC(OC(=O)c2ccccc2)CC1=O` (stereo not drawn), the melting point fell in the range of 56 to 67 °C.

`CCCCCCNC(=O)Nc1ccccc1C(=O)NCCC1CCN(C(c2ccccc2)c2ccccc2)CC1` returned a melting point of 143 to 144 °C.

`OC1CSC(Sc2ccc(C(F)(F)F)cc2)C(O)C1O` (stereo not drawn) showed a melting point of 128 to 130 °C.

The molecule `CCCCCC(=O)Nc1ccc2ccn(CCCCCCC(=O)NS(=O)(=O)c3ccccc3)c2c1` displayed a melting point of 97 to 99 °C.

Molecule `Cc1cc(C(O)(C(F)(F)F)C(F)(F)F)cc(C)c1OCC(=O)O` gave a melting point of 118 to 120 °C.

The molecule `CC1CC2C3CC(F)C4=CC(=O)C=CC4(C)C3C(=O)CC2(C)C1C(=O)COC(=O)C(C)(C)C` (stereo not drawn) displayed a melting point of 226 to 227 °C.

Turning to `Cc1c(NC(=O)c2ccc(-c3ccc(F)cc3)cc2)ccc2cc(C(C)N3CCCC3)cnc12` (stereo not drawn), the melting point fell in the range of 179 to 182 °C.

Turning to `O=c1c(Cl)nsnc1Oc1cccnc1`, the melting point fell in the range of 134 to 136 °C.

Molecule `CC(=O)NC1Cc2cn(S(=O)(=O)c3c(C(C)C)cc(C(C)C)cc3C(C)C)c3cccc(c23)C1=O` (stereo not drawn) came in with a melting point of 159 to 162 °C.

On to `CCN(CC1CCCC1)c1nc2ccccc2cc1CN(Cc1cc(C(F)(F)F)cc(C(F)(F)F)c1)C(N)=S`, for which the melting point was 98 °C.

Molecule `O=C1NC(=C2CCC2)Sc2ccccc21` gave a melting point of 147 to 149 °C.

In turn, `CC(C)(C)OC(=O)Nc1ccc(-c2ccccc2F)cc1NC(=O)CC(=O)c1csc(-n2ccnc2)n1` gave a melting point of 115 to 130 °C.

For the molecule `Cc1nc2c(N)nc3ccccc3c2n1Cc1ccccc1`, the melting point was 279 to 282 °C.

Molecule `c1ccc(OCCn2ccnc2)cc1` showed a melting point of 88 °C.

The molecule `O=C(O)C1=Cc2cc(-c3ccc(OC(F)(F)F)cc3)ccc2OCC1` came in with a melting point of 252 to 254 °C.

The molecule `Cc1cc(NC(=O)c2cc(Cl)cc(C)n2)ccn1` displayed a melting point of 162 °C.

With `Cc1cc(C(=N)NO)cn2cc(-c3cccc(-c4ccc(C(=N)NO)cc4)c3)nc12`, the melting point fell in the range of 193 to 195 °C.

As to `CC(=O)CC(=O)NCc1ccccc1`, the melting point was 84 to 86 °C.

Molecule `CCc1cnc2c(NC(=O)c3c(Cl)cccc3Cl)cccc2c1CCC(=O)O` registered a melting point of 236 to 237 °C.

On to `N=C(N)Nc1nc(CCCCC(=N)NS(N)(=O)=O)cs1`, for which the melting point lay within 156 to 157 °C.

`COC(=O)N(Oc1cc(Cl)cc(Cl)c1)C(=O)N(C)C(C)C`: the melting point lay within 67 to 69 °C.

In turn, `COC(=O)c1ccc(OCCC[Si](C)(C)C)cc1O` showed a melting point of 32 to 33 °C.

Molecule `Oc1cccc(C=Cc2ccc3ccccc3n2)c1` gave a melting point of 210 to 212 °C.

`COc1nc(C)cnc1NS(=O)(=O)c1ccccc1I` returned a melting point of 136 to 138 °C.

`COC(=O)c1cc([N+](=O)[O-])cc([N+](=O)[O-])c1SCc1ccccc1` returned a melting point of 113 to 114 °C.

Regarding `CN(C)Cc1nc(CO)nn1-c1ccc(Cl)cc1C(O)c1ccccc1` (stereo not drawn), the melting point was 121 to 123 °C.

In turn, `CN1C(=O)C(c2c[nH]c3ncccc23)=C(c2cn(S(=O)(=O)c3ccccc3)c3ncccc23)C1=O` came in with a melting point of 198 °C.

`O=S1(=O)N=CN(C2CC2)c2cc(Br)c(C(F)(F)F)cc21` yielded a melting point of 204 to 206 °C.

Regarding `Cc1c(C(O)C(C)(C)C)cc(I)[nH]c1=O` (stereo not drawn), the melting point was in the range of 186 to 187 °C.

Molecule `O=C1c2ccccc2C(O)(c2ccc(Cl)cc2)N1Cc1ccc([N+](=O)[O-])cc1` (stereo not drawn) registered a melting point of 197 to 200 °C.

As for `O=C(O)c1cc(C(=O)O)cc(P(=O)(c2ccccc2)c2ccccc2)c1`, the melting point was in the range of 283 to 286 °C.

In turn, `COc1cc2c(cc1OC)-c1cc3cc(O)ccc3n1C2=O` yielded a melting point of more than 260 °C.

For `Cc1ccc([C@H]2CCCN2[S@@](=O)C(C)(C)C)cc1`, the melting point is 62 to 64 °C.

Consider `Cc1c(C(=O)NCc2ccc3c(Br)c(OC(Cc4ccccc4)C(=O)O)ccc3c2)oc2ccccc12` (stereo not drawn), for which the melting point was in the range of 110 to 113 °C.

Regarding `COc1cc(OC)c2c(=O)n(CCCN3CCCC3)c(-c3cc(C)c(OCCCN4CCCC4)c(C)c3)nc2c1`, the melting point lay in the range of 109 to 111 °C.

Take `CCCCCCCCON1C(C)(C)CC(OC(=O)COc2ccc(-c3nc(-c4ccc(C)cc4C)nc(-c4ccc(C)cc4C)n3)c(O)c2)CC1(C)C`: the melting point was 86 to 90 °C.

With `COc1ccccc1N1CCN(C(=S)Nc2nc3ccccc3nc2OC)CC1`, the melting point fell in the range of 160 to 162 °C.

`CNc1ncn(-c2c(C)cccc2Br)c(=O)n1` displayed a melting point of 238 to 240 °C.

On to `Cc1cccc(-c2nc(N)ncc2-c2ccc(=O)n(C)n2)c1`, for which the melting point amounted to 214 °C.

`COc1cccc(Cc2n[nH]c3c2c(=O)n(-c2ccccc2)c2ncccc32)c1` yielded a melting point of 234 to 236 °C.

`O=C(O)C1=Cc2cc(Cl)c(Sc3ccccc3)cc2OC1C(F)(F)F` (stereo not drawn) had a melting point of 272 to 274 °C.

Molecule `CCOC(=O)CC1(S(N)(=O)=O)c2ccccc2-c2ccccc21` came in with a melting point of 167 to 170 °C.

For the molecule `N#Cc1nn(-c2c(Cl)cc(C(F)(F)F)cc2Cl)cc1-c1ccoc1Cl`, the melting point turned out to be 125 °C.

`O=[N+]([O-])c1ccc(-c2nnsc2-c2ccc([N+](=O)[O-])cc2)cc1` displayed a melting point of 185 to 186 °C.

For the molecule `Cc1cccc(SCc2c(CCN(C)C)[nH]c3ccccc23)c1`, the melting point was in the range of 75 to 78 °C.

Consider `COc1ccc2c(c1)-c1nc(-c3ccccc3C)c(N)n1CC2`, for which the melting point was found to be 160 °C.

The molecule `C=C(CC)CNc1cccc(-c2ccnc3c(C(=O)c4cccs4)cnn23)c1` registered a melting point of 79 to 82 °C.

`CNC(=O)c1ccc(Nc2nc(O[C@H]3CCOC3)c3c(-c4ccc5nc(C)oc5c4)c[nH]c3n2)c(C)c1` gave a melting point of 273 to 274 °C.

With `CCCCCCCCOc1ccc(-c2ncc(-c3ccc(CCCCCCCC)cc3)cn2)c(F)c1`, the melting point was found to be 75 °C.

Turning to `COC(=O)C1(CF)C=NN(C)N1` (stereo not drawn), the melting point lay in the range of 64 to 66 °C.

The molecule `CCN(CC)C(=O)CO/N=C(\C(=O)O)c1csc(N)n1` yielded a melting point of 180 °C.

With `O=[N+]([O-])c1cnc2cc(Cl)ccc2c1Cl`, the melting point lay within 165 to 167 °C.

With `O=C(NCc1ccc(F)cc1)N1CCC(Oc2ccc(CCNC[C@H](O)COc3ccc(O)cc3)cc2)CC1`, the melting point lay within 126 to 128 °C.

Consider `CCCC(=O)c1cnc2cc(COC(=O)c3ccccc3)ccc2c1Nc1ccccc1C`, for which the melting point was in the range of 110 to 112 °C.

With `N#CC1=C2C(=NC1=O)c1c(Sc3ccc(Br)cc3)ccc3c(Sc4ccc(Br)cc4)ccc2c13`, the melting point was in the range of 262 to 263 °C.

In turn, `O=C(NN1CCOCC1)C(CS)Cc1c(Cl)cccc1Cl` (stereo not drawn) yielded a melting point of 142 °C.

Turning to `OCC/C(CCCCCCCCS)=C(\CCO)CCCCCCCCS`, the melting point was in the range of 67.4 to 68.2 °C.

In turn, `Cc1ccc2c(c1)OC(CCO)C(=O)N2Cc1cccc(Cl)c1` (stereo not drawn) had a melting point of 72 to 74 °C.

The molecule `O=C(O)c1ccc(Cl)cc1C(F)(F)F` yielded a melting point of 106 to 108 °C.

`CC(=O)Nc1c(-c2c(F)cc(F)cc2F)c(Cl)nc2ncnn12` yielded a melting point of 108 to 111 °C.

`OC1Cn2cccc2Sc2ccccc21` (stereo not drawn): the melting point lay in the range of 101 to 102 °C.

In turn, `COc1cccc2cc(C3CCN(C)CC3)oc12` showed a melting point of 74 to 75 °C.

Regarding `C=CCC(NC(=O)C(CCCCN)NC(=O)Cc1cn(CC=C)c2ccccc12)C(=O)OC` (stereo not drawn), the melting point fell in the range of 103 to 106 °C.

Consider `CC(C)c1ccc2c(c1)c(Sc1ccccc1C(C)C)c(CC(C)(C)C(=O)O)n2Cc1ccc(Cl)cc1`, for which the melting point was 142 to 143 °C.

As to `NC(=O)c1cc(-n2cccn2)ccc1N`, the melting point was in the range of 147 to 149 °C.

(Values after a melting point compilation (Tetko et al.; mined from patent text by program, amines drawn as free bases though some values may be those of a salt).)
